# Measured values reported in ChEMBL document CHEMBL4229536, “In vitro and in vivo pharmacokinetic and pharmacodynamic study of MBRI-001, a deuterium-substituted plinabulin derivative as a potent anti-cancer agent” (Bioorg Med Chem, 2018).
# Legend:
# Mus musculus [1] = assay: Toxicity in nude mouse xenografted with human NCI-H460 cells assessed as death at 25 to 100 mg/kg, po qd for 14 consecutive days; type: organism-based; conditions: in vivo
# Mus musculus [2] = assay: Toxicity in Balb/c mouse assessed as mortality at 20 to 40 mg/kg, iv administered three times in a day every 2 days for 15 consecutive days; type: organism-based; conditions: in vivo, 48 h
# [3] = Stability in rat plasma at 1 uM after 40 mins by LC-MS/MS analysis; type: ADME, cell-free; conditions: read-out: Stability
# Cytochrome P450 2C9 = Cytochrome P450 2C9 (Homo sapiens, UniProt P11712); assay: Inhibition of CYP2C9 in human liver microsomes preincubated for 10 mins followed by NADPH addition measured after 10 mins by LC-MS/MS analysis; type: ADME
# Chain of Cytochrome P450 2C9 (P11712 whole entry): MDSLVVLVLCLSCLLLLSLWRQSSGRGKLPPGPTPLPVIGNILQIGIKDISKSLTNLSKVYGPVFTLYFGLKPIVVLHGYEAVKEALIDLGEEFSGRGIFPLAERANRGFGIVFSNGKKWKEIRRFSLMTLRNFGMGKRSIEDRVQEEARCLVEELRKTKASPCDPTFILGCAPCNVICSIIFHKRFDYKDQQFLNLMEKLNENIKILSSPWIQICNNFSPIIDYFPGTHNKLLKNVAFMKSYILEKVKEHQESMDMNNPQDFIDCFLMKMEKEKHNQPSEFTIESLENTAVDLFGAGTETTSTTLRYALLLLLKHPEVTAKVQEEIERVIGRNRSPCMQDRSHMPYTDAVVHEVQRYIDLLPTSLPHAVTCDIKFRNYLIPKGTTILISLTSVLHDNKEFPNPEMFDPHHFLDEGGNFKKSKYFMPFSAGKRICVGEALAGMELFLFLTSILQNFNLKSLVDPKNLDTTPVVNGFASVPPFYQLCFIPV
# Cytochrome P450 1A2 = target: T1, Cytochrome P450 1A2 (Homo sapiens, UniProt P05177); assay: Inhibition of CYP1A2 in human liver microsomes preincubated for 10 mins followed by NADPH addition measured after 10 mins by LC-MS/MS analysis; type: ADME
# T1 sequence (P05177 whole entry): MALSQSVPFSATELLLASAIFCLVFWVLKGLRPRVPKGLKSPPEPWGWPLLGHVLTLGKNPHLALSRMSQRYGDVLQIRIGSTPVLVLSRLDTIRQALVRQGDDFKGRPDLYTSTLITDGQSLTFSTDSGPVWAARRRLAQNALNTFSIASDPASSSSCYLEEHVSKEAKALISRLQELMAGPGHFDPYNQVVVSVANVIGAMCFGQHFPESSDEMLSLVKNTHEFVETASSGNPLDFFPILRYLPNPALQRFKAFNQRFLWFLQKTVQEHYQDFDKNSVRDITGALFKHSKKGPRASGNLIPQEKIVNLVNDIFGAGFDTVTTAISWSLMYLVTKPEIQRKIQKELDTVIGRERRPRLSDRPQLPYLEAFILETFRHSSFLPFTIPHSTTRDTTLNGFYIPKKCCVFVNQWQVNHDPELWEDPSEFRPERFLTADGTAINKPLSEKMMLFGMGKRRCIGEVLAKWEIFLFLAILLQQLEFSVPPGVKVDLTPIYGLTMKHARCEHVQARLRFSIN
# [4] = Stability in rat liver microsomes at 50 uM after 60 mins in presence of NADPH by LC-MS/MS analysis; type: ADME, microsome; conditions: read-out: Stability
# [5] = Stability in rat liver microsomes at 50 uM after 40 mins in presence of NADPH by LC-MS/MS analysis; type: ADME, microsome; conditions: read-out: Stability
# [6] = Protein binding in human plasma at 2 uM after 4 hrs by LC-MS/MS analysis; type: ADME, cell-free; conditions: read-out: PPB (converted)
# [7] = Clearance in rat liver microsomes at 50 uM in presence of NADPH by LC-MS/MS analysis; type: ADME, microsome; conditions: read-out: CLH
# [8] = Stability in rat liver microsomes at 50 uM after 210 mins in presence of NADPH by LC-MS/MS analysis; type: ADME, microsome; conditions: microsomes, 3.5 h, 50 µM
# [9] = Protein binding in Beagle dog plasma at 2 uM after 4 hrs by LC-MS/MS analysis; type: ADME, cell-free, Canis lupus familiaris; conditions: read-out: PPB (converted)
# [10] = Protein binding in Sprague-Dawley rat plasma at 2 uM after 4 hrs by LC-MS/MS analysis; type: ADME, cell-free; conditions: read-out: PPB (converted)
# [11] = Half life in rat liver microsomes at 50 uM in presence of NADPH by LC-MS/MS analysis; type: ADME, microsome
# [12] = Stability in rat liver microsomes at 50 uM after 120 mins in presence of NADPH by LC-MS/MS analysis; type: ADME, microsome; conditions: read-out: Stability
# [13] = Stability in rat plasma at 1 uM after 5 mins by LC-MS/MS analysis; type: ADME, cell-free; conditions: read-out: Stability
# [14] = Stability in rat plasma at 1 uM after 20 mins by LC-MS/MS analysis; type: ADME, cell-free; conditions: read-out: Stability
# [15] = Stability in rat liver microsomes at 50 uM after 90 mins in presence of NADPH by LC-MS/MS analysis; type: ADME, microsome; conditions: read-out: Stability
# [16] = Stability in rat liver microsomes at 50 uM after 10 mins in presence of NADPH by LC-MS/MS analysis; type: ADME, microsome; conditions: microsomes, 10 min, 50 µM
# [17] = Stability in rat liver microsomes at 50 uM after 20 mins in presence of NADPH by LC-MS/MS analysis; type: ADME, microsome; conditions: read-out: Stability
# Cytochrome P450 3A4 = Cytochrome P450 3A4 (Homo sapiens, UniProt P08684); assay: Inhibition of CYP3A4 in human liver microsomes preincubated for 10 mins followed by NADPH addition measured after 10 mins by LC-MS/MS analysis; type: ADME
# Chain of Cytochrome P450 3A4 (P08684 whole entry): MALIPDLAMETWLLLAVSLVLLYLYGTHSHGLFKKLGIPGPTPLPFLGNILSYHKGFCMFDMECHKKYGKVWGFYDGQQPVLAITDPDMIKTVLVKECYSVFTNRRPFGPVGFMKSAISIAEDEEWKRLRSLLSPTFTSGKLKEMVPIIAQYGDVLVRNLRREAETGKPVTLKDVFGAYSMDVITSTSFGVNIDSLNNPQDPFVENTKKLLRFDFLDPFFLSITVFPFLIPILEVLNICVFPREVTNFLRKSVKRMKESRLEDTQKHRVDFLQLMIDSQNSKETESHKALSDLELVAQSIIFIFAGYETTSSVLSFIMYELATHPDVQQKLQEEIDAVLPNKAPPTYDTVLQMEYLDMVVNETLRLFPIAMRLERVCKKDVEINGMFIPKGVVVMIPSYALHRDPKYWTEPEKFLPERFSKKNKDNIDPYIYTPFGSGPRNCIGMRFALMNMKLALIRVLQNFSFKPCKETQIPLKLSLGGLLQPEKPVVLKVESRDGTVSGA
# [18] = Stability in rat liver microsomes at 50 uM after 270 mins in presence of NADPH by LC-MS/MS analysis; type: ADME, microsome; conditions: 4.5 h
# Cytochrome P450 2C19 = Cytochrome P450 2C19 (Homo sapiens, UniProt P33261); assay: Inhibition of CYP2C19 in human liver microsomes preincubated for 10 mins followed by NADPH addition measured after 10 mins by LC-MS/MS analysis; type: ADME
# Chain of Cytochrome P450 2C19 (P33261 whole entry): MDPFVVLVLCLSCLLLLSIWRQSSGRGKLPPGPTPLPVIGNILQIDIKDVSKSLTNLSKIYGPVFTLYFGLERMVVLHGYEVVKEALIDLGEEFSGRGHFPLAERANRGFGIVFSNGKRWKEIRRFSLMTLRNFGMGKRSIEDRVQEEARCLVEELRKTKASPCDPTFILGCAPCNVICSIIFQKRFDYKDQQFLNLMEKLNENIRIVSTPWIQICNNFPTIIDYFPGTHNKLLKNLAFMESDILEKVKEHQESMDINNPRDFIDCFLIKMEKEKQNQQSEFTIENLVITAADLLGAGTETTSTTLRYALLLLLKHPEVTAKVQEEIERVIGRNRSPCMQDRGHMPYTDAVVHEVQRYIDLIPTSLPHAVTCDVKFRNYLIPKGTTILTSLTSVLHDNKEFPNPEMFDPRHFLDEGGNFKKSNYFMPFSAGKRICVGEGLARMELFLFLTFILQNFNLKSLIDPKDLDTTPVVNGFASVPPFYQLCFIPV
# [19] = Stability in rat plasma at 1 uM after 90 mins by LC-MS/MS analysis; type: ADME, cell-free; conditions: read-out: Stability
# [20] = Stability in rat liver microsomes at 50 uM after 150 mins in presence of NADPH by LC-MS/MS analysis; type: ADME, microsome; conditions: read-out: Stability
# [21] = Stability in rat plasma at 1 uM after 120 mins by LC-MS/MS analysis; type: ADME, cell-free; conditions: read-out: Stability
# [22] = Stability in rat plasma at 1 uM after 10 mins by LC-MS/MS analysis; type: ADME, cell-free; conditions: read-out: Stability
# [23] = Stability in rat liver microsomes at 50 uM after 5 mins in presence of NADPH by LC-MS/MS analysis; type: ADME, microsome; conditions: microsomes, 5 min, 50 µM
# [24] = Stability in rat plasma at 1 uM after 60 mins by LC-MS/MS analysis; type: ADME, cell-free; conditions: read-out: Stability
# Cytochrome P450 2D6 = Cytochrome P450 2D6 (Homo sapiens, UniProt P10635); assay: Inhibition of CYP2D6 in human liver microsomes preincubated for 10 mins followed by NADPH addition measured after 10 mins by LC-MS/MS analysis; type: ADME
# Chain of Cytochrome P450 2D6 (P10635 whole entry): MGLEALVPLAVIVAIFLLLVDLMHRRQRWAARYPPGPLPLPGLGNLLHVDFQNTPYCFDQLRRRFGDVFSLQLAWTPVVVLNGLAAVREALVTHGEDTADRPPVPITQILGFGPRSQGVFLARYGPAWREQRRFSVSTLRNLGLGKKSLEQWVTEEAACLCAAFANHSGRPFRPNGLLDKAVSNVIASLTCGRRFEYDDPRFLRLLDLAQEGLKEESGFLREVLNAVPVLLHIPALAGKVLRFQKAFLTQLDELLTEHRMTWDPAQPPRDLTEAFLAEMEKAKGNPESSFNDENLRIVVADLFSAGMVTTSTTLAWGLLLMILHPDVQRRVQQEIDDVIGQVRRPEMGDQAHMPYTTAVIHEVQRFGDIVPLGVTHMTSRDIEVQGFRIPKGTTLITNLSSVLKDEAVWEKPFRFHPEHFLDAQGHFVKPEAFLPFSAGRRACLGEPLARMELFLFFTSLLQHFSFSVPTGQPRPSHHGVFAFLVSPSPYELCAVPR
compound,measurement,setting,value
COc1cc2ncnc(Nc3ccc(F)c(Cl)c3)c2cc1OCCCN1CCOCC1 [GEFITINIB],Activity,Mus musculus [1],Non-Toxic
Nc1ccn([C@@H]2O[C@H](CO)[C@@H](O)C2(F)F)c(=O)n1 [GEMCITABINE],Activity,Mus musculus [2],Non-Toxic
CC(C)(C)c1[nH]cnc1/C=c1\[nH]c(=O)/c(=C/c2ccccc2)[nH]c1=O [PLINABULIN],"remaining at 40 min, 1 µM",[3],99%
same,IC50,Cytochrome P450 2C9,0.53 µM
same,IC50,Cytochrome P450 1A2,1.24 µM
same,"remaining at 1 h, 50 µM",[4],44.8%
same,"remaining at 40 min, 50 µM",[5],56.6%
same,"fraction unbound at 4 h, 2 µM",[6],0.018
same,microsomal CLint at 50 µM,[7],23.4 µL/min/mg
same,Stability,[8],29.64%
same,"fraction unbound at 4 h, 2 µM",[9],0.028
same,"fraction unbound at 4 h, 2 µM",[10],0.039
same,t1/2,[11],59.34 min
same,"remaining at 2 h, 50 µM",[12],29.9%
same,"remaining at 5 min, 1 µM",[13],95.5%
same,"remaining at 20 min, 1 µM",[14],98.2%
same,"remaining at 1.5 h, 50 µM",[15],41.1%
same,Stability,[16],65.58%
same,"remaining at 20 min, 50 µM",[17],63.5%
same,IC50,Cytochrome P450 3A4,> 50 µM
same,Stability,[18],34.94%
same,IC50,Cytochrome P450 2C19,4.23 µM
same,"remaining at 1.5 h, 1 µM",[19],110%
same,"remaining at 2.5 h, 50 µM",[20],29.9%
same,"remaining at 2 h, 1 µM",[21],109%
same,"remaining at 10 min, 1 µM",[22],97.7%
same,Stability,[23],77.21%
same,"remaining at 1 h, 1 µM",[24],103%
same,IC50,Cytochrome P450 2D6,> 50 µM
